Data from US20240374591A1, “CEREBLON BINDING COMPOUNDS, COMPOSITIONS THEREOF, AND METHODS OF TREATMENT THEREWITH” (CELGENE CORPORATION, priority 2021, published 2024).
Where a name gives a salt, the structure may show the parent alone.

Molecular target: T1, AR in VCaP cells (Homo sapiens, UniProt P10275)
T1 construct: endogenous in cells; host or cells: VCaP cells
T1 sequence (P10275 1-920): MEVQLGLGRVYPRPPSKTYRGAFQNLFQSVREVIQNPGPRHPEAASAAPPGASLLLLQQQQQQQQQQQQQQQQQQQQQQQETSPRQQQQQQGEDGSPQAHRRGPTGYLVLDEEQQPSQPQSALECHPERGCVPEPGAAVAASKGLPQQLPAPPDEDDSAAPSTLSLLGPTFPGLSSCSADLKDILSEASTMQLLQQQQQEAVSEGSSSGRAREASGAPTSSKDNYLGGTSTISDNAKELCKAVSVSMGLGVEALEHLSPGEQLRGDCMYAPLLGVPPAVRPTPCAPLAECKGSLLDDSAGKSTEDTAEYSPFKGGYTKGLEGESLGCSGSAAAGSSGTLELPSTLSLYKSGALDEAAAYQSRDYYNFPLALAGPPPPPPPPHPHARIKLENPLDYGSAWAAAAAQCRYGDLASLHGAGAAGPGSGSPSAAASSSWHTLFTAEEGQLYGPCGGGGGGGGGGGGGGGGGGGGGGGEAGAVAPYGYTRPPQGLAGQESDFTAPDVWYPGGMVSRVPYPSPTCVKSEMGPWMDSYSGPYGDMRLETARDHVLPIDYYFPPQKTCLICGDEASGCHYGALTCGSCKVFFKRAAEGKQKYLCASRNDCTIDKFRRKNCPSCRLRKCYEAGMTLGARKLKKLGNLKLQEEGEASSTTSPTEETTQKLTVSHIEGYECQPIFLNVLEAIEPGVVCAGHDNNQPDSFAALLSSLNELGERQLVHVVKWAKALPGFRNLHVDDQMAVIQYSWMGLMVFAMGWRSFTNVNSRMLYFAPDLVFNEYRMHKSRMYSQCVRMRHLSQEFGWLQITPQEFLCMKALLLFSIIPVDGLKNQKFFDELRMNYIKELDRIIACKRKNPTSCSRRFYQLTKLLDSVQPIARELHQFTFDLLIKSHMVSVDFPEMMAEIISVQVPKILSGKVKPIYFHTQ
Assay: VCAP AR Degradation Assay (AR ELISA, 24 h)
Type: cell-based
Settings: for DC50: concentration giving 50% AR degradation vs DMSO control; for remaining activity at up to 5 µM: lowest measured AR level normalized to DMSO control, top concentration 5 μM, read-out: Y
Protocol: VCAP AR Degradation Assay. Test compounds were pre-dispensed into a Corning CellBind 96-well clear bottom plate (Cat #3300) using an acoustic dispenser to make a 10-point concentration series at 1:3 dilution for each compound. The final top concentration of each compound was 5 μM. DMSO at a final concentration of 0.1% was used as a control. VCaP cells cultured in DMEM with 8% fetal bovine serum (FBS) were seeded at 50K cells per well in a 200 μL volume into the compound plate and incubated at 37° C. in a CO2 incubator for 24 h. The medium was carefully removed from the cells and the plate was placed on ice. One hundred μL of ice-cold 1× cell lysis buffer from Cell Signaling Technologies (Cat #9803) was added to each well of the cells and the plate was incubated at 4° C. on a shaker for 1 h. Fifteen μL of cell lysate was used for AR ELISA detection using a PathScan Total Sandwich AR ELISA kit (Cell Signaling Technology, Cat #12580). AR levels in compound-treated wells were normalized to that of DMSO control and expressed as percent of control (PoC) (y). A Four Parameter Logistic Model (Sigmoidal Dose-Response Model) was used to determine the compound's DC50, and EC50, using the following equation: […]
The lowest measured AR level normalized to DMSO control in response to compound treatment, termed Y value, was used to characterize the compound-mediated AR degradation efficiency.

Compound: C[C@@H]1CN(CCO[C@H]2CC[C@H](N3C(=S)N(c4ccc(C#N)c(C(F)(F)F)c4)C(=O)C3(C)C)CC2)C[C@H](C)N1CC(=O)Nc1ccc(N2CCC(=O)NC2=O)nc1 [Cmpd 1, 2-((2R,6S)-4-(2-((trans-4-(3-(4-Cyano-3-(trifluoromethyl)phenyl)-5,5-dimethyl-4-oxo-2-thioxoimidazolidin-1-yl)cyclohexyl)oxy)ethyl)-2,6-dimethylpiperazin-1-yl)-N-(6-(2,4-dioxotetrahydropyrimidin-1(2H)-yl)pyridin-3-yl)acetamide]
- DC50: 100 to 10000 nM
- remaining activity at up to 5 µM: 30 to 70%

Compound: C[C@@H]1CN(CCO[C@H]2CC[C@H](N3C(=S)N(c4ccc(C#N)c(C(F)(F)F)c4)C(=O)C3(C)C)CC2)C[C@H](C)N1CC(=O)Nc1ccc(C2CCC(=O)NC2=O)nc1 (stereo partly drawn) [Cmpd 2, 2-((2R,6S)-4-(2-((trans-4-(3-(4-Cyano-3-(trifluoromethyl)phenyl)-5,5-dimethyl-4-oxo-2-thioxoimidazolidin-1-yl)cyclohexyl)oxy)ethyl)-2,6-dimethylpiperazin-1-yl)-N-(6-(2,6-dioxopiperidin-3-yl)pyridin-3-yl)acetamide hydrochloride]
- DC50: 5 to 10 nM
- remaining activity at up to 5 µM: 30 to 70%

Compound: C[C@@H]1CN(CCC[C@H]2CC[C@H](N3C(=S)N(c4ccc(C#N)c(C(F)(F)F)c4)C(=O)C3(C)C)CC2)C[C@H](C)N1CC(=O)Nc1ccc(C2CCC(=O)NC2=O)nc1 (stereo partly drawn) [Cmpd 3, 2-((2R,6S)-4-(3-(trans-4-(3-(4-Cyano-3-(trifluoromethyl)phenyl)-5,5-dimethyl-4-oxo-2-thioxoimidazolidin-1-yl)cyclohexyl)propyl)-2,6-dimethylpiperazin-1-yl)-N-(6-(2,6-dioxopiperidin-3-yl)pyridin-3-yl)acetamide]
- DC50: 5 to 10 nM
- remaining activity at up to 5 µM: 30 to 70%

Compound: C[C@@H]1CN(CCCO[C@H]2CC[C@H](N3C(=S)N(c4cnc(C#N)c(C(F)(F)F)c4)C(=O)C3(C)C)CC2)C[C@H](C)N1CC(=O)Nc1ccc(C2CCC(=O)NC2=O)nc1 (stereo partly drawn) [Cmpd 4, 2-((2R,6S)-4-(3-((trans-4-(3-(6-Cyano-5-(trifluoromethyl)pyridin-3-yl)-5,5-dimethyl-4-oxo-2-thioxoimidazolidin-1-yl)cyclohexyl)oxy)propyl)-2,6-dimethylpiperazin-1-yl)-N-(6-(2,6-dioxopiperidin-3-yl)pyridin-3-yl)acetamide hydrochloride]
- DC50: ≤ 5 nM
- remaining activity at up to 5 µM: 20 to 30%

Compound: C[C@@H]1CN(CCCO[C@H]2CC[C@H](N3C(=S)N(c4ccc(C#N)c(C(F)(F)F)c4)C(=O)C3(C)C)CC2)C[C@H](C)N1CC(=O)Nc1ccc(C2CCC(=O)NC2=O)nc1 (stereo partly drawn) [Cmpd 5, 2-((2R,6S)-4-(3-((trans-4-(3-(4-Cyano-3-(trifluoromethyl)phenyl)-5,5-dimethyl-4-oxo-2-thioxoimidazolidin-1-yl)cyclohexyl)oxy)propyl)-2,6-dimethylpiperazin-1-yl)-N-(6-(2,6-dioxopiperidin-3-yl)pyridin-3-yl)acetamide hydrochloride]
- DC50: ≤ 5 nM
- remaining activity at up to 5 µM: 20 to 30%

Compound: C[C@@H]1CN(CCO[C@H]2CC[C@H](N3C(=S)N(c4cnc(C#N)c(Cl)c4)C(=O)C3(C)C)CC2)C[C@H](C)N1CC(=O)Nc1ccc(C2CCC(=O)NC2=O)nc1 (stereo partly drawn) [Cmpd 6, 2-((2R,6S)-4-(2-((trans-4-(3-(5-Chloro-6-cyanopyridin-3-yl)-5,5-dimethyl-4-oxo-2-thioxoimidazolidin-1-yl)cyclohexyl)oxy)ethyl)-2,6-dimethylpiperazin-1-yl)-N-(6-(2,6-dioxopiperidin-3-yl)pyridin-3-yl)acetamide hydrochloride]
- DC50: ≤ 5 nM
- remaining activity at up to 5 µM: 20 to 30%

Compound: C[C@@H]1CN(CCCO[C@H]2CC[C@H](N3C(=S)N(c4ccc(C#N)c(Cl)c4)C(=O)C3(C)C)CC2)C[C@H](C)N1CC(=O)Nc1ccc(C2CCC(=O)NC2=O)nc1 (stereo partly drawn) [Cmpd 7, 2-((2R,6S)-4-(3-((trans-4-(3-(3-Chloro-4-cyanophenyl)-5,5-dimethyl-4-oxo-2-thioxoimidazolidin-1-yl)cyclohexyl)oxy)propyl)-2,6-dimethylpiperazin-1-yl)-N-(6-(2,6-dioxopiperidin-3-yl)pyridin-3-yl)acetamide hydrochloride]
- DC50: ≤ 5 nM
- remaining activity at up to 5 µM: 0 to 20%

Compound: C[C@@H]1CN(CCC[C@H]2CC[C@H](N3C(=S)N(c4cnc(C#N)c(C(F)(F)F)c4)C(=O)C3(C)C)CC2)C[C@H](C)N1CC(=O)Nc1ccc(C2CCC(=O)NC2=O)nc1 (stereo partly drawn) [Cmpd 8, 2-((2R,6S)-4-(3-(trans-4-(3-(6-Cyano-5-(trifluoromethyl)pyridin-3-yl)-5,5-dimethyl-4-oxo-2-thioxoimidazolidin-1-yl)cyclohexyl)propyl)-2,6-dimethylpiperazin-1-yl)-N-(6-(2,6-dioxopiperidin-3-yl)pyridin-3-yl)acetamide hydrochloride]
- DC50: ≤ 5 nM
- remaining activity at up to 5 µM: 20 to 30%

Compound: C[C@@H]1CN(CCO[C@H]2CC[C@H](N3C(=S)N(c4ccc(C#N)c(C(F)(F)F)c4)C(=O)C3(C)C)CC2)C[C@H](C)N1CCC(=O)Nc1ccc(N2CCC(=O)NC2=O)nc1 [Cmpd 9, 3-((2R,6S)-4-(2-((trans-4-(3-(4-Cyano-3-(trifluoromethyl)phenyl)-5,5-dimethyl-4-oxo-2-thioxoimidazolidin-1-yl)cyclohexyl)oxy)ethyl)-2,6-dimethylpiperazin-1-yl)-N-(6-(2,4-dioxotetrahydropyrimidin-1(2H)-yl)pyridin-3-yl)propanamide]
- DC50: 10 to 100 nM
- remaining activity at up to 5 µM: 30 to 70%

Compound: C[C@@H]1CN(CCC[C@H]2CC[C@H](N3C(=S)N(c4ccc(C#N)c(Cl)c4)C(=O)C3(C)C)CC2)C[C@H](C)N1CC(=O)Nc1ccc(C2CCC(=O)NC2=O)nc1 (stereo partly drawn) [Cmpd 10, 2-((2R,6S)-4-(3-(trans-4-(3-(3-Chloro-4-cyanophenyl)-5,5-dimethyl-4-oxo-2-thioxoimidazolidin-1-yl)cyclohexyl)propyl)-2,6-dimethylpiperazin-1-yl)-N-(6-(2,6-dioxopiperidin-3-yl)pyridin-3-yl)acetamide hydrochloride]
- DC50: 10 to 100 nM
- remaining activity at up to 5 µM: 30 to 70%

Compound: C[C@@H]1CN(CCC[C@H]2CC[C@H](N3C(=S)N(c4cnc(C#N)c(Cl)c4)C(=O)C3(C)C)CC2)C[C@H](C)N1CC(=O)Nc1ccc(C2CCC(=O)NC2=O)nc1 (stereo partly drawn) [Cmpd 11, 2-((2S,6R)-4-(3-(trans-4-(3-(5-Chloro-6-cyanopyridin-3-yl)-5,5-dimethyl-4-oxo-2-thioxoimidazolidin-1-yl)cyclohexyl)propyl)-2,6-dimethylpiperazin-1-yl)-N-(6-(2,6-dioxopiperidin-3-yl)pyridin-3-yl)acetamide hydrochloride]
- DC50: ≤ 5 nM
- remaining activity at up to 5 µM: 20 to 30%

Compound: C[C@@H]1CN(CCCO[C@H]2CC[C@H](N3C(=S)N(c4ccc(C#N)c(C(F)(F)F)c4)C(=O)C3(C)C)CC2)C[C@H](C)N1CC(=O)Nc1ccc(N2CCC(=O)NC2=O)nc1 [Cmpd 12, 2-((2R,6S)-4-(3-((trans-4-(3-(4-Cyano-3-(trifluoromethyl)phenyl)-5,5-dimethyl-4-oxo-2-thioxoimidazolidin-1-yl)cyclohexyl)oxy)propyl)-2,6-dimethylpiperazin-1-yl)-N-(6-(2,4-dioxotetrahydropyrimidin-1(2H)-yl)pyridin-3-yl)acetamide hydrochloride]
- DC50: 100 to 10000 nM
- remaining activity at up to 5 µM: 30 to 70%

Compound: CC1(C)C(=O)N(c2ccc(C#N)c(C(F)(F)F)c2)C(=S)N1[C@H]1CC[C@H](OCCN2CCN(CC(=O)Nc3ccc(C4CCC(=O)NC4=O)nc3)[C@@H](C(F)(F)F)C2)CC1 (stereo partly drawn) [Cmpd 13, 2-((R)-4-(2-((trans-4-(3-(4-Cyano-3-(trifluoromethyl)phenyl)-5,5-dimethyl-4-oxo-2-thioxoimidazolidin-1-yl)cyclohexyl)oxy)ethyl)-2-(trifluoromethyl)piperazin-1-yl)-N-(6-(2,6-dioxopiperidin-3-yl)pyridin-3-yl)acetamide hydrochloride]
- DC50: 5 to 10 nM
- remaining activity at up to 5 µM: 20 to 30%
